Results taken from patent publication US12247033B2, “Triazole-substituted imidazo[1,2-a]pyrimidines as cGAS inhibitors” (GlaxoSmithKline Intellectual Property Development Limited, priority 2022, dated 2025).
Structures can show the parent of a compound that is named as a salt.

What was measured:
CGAS = CGAS whole blood cytokine release assay (384-well, BacMam stimulation, IP-10 by cytometric bead array); format: cell-based; conditions: Homo sapiens, 6 h; read-out: hWB pXC50 (converted)
Method in brief: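 Heparinised human donor whole blood mixed with serially diluted compound plus Null BacMam stimulus, incubated 6 h at 37° C, 5% CO2. Supernatant IP-10 quantified by cytometric bead array on flow cytometer (488 nm excitation, 585/40 nm emission); inhibition of IP-10 calculated.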

human CGAS (157-522) = human CGAS (157-522) (Homo sapiens, UniProt Q8N884); experiment: biochemical;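 further: biochemical enzyme reaction, 2′3′-cGAMP product measured by RapidFire mass spectrometry (MRM) normalised to c-di-UMP internal standard, inhibition of product formation relative to high and low control wells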
Sequence of human CGAS (157-522) (Q8N884 157-522): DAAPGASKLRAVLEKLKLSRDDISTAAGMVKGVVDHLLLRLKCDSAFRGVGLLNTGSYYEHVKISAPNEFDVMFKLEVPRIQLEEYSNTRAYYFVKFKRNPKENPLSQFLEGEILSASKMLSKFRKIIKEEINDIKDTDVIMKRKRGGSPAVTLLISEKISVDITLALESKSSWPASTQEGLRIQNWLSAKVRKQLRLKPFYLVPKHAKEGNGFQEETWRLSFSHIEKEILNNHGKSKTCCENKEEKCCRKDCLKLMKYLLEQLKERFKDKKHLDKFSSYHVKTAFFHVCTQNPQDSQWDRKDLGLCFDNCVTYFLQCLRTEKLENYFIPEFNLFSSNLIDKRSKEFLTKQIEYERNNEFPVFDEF

| SMILES | IC50 (CGAS) [nM] | IC50 (human CGAS (157-522)) [nM] |
| --- | --- | --- |
| CC(O)c1ccn2c(-c3cnc[nH]3)c(-c3nc(C(F)(F)F)n[nH]3)nc2n1 (stereo not shown) [Example 13, 1-[3-(1H-imidazol-5-yl)-2-[3-(trifluoromethyl)-1H-1,2,4-triazol-5-yl]imidazo[1,2-a]pyrimidin-7-yl]ethan-1-ol] | 1000 | 10 |
| OCc1cnc2nc(-c3nc(C(F)(F)F)n[nH]3)c(-c3cnc[nH]3)n2c1 [Example 61, [3-(1H-imidazol-5-yl)-2-[3-(trifluoromethyl)-1H-1,2,4-triazol-5-yl]imidazo[1,2-a]pyrimidin-6-yl]methanol] | 398 | 12.6 |
| FC(F)(F)c1n[nH]c(-c2nc3ncc(COCCC4COCCO4)cn3c2-c2c[nH]cn2)n1 (stereo not shown) [Example 145, 5-(6-{[2-(1,4-dioxan-2-yl)ethoxy]methyl}-3-(1H-imidazol-4-yl)imidazo[1,2-a]pyrimidin-2-yl)-3-(trifluoromethyl)-1H-1,2,4-triazole] | 1000 | 10 |
| O=C(CCCOP(=O)(O)O)OCn1cnc(-c2c(-c3nc(C(F)(F)F)nn3COC(=O)CCCOP(=O)(O)O)nc3ncccn23)c1 [Example 30, {4-oxo-4-[(5-{3-[1-({[4-(phosphonooxy)butanoyl]oxy}methyl)-1H-imidazol-4-yl]imidazo[1,2-a]pyrimidin-2-yl}-3-(trifluoromethyl)-1H-1,2,4-triazol-1-yl)methoxy]butoxy}phosphonic acid, trifluoroacetic acid salt] | 1260 | 316 |
| N#CCCOCc1cnc2nc(-c3nc(C(F)(F)F)n[nH]3)c(-c3cnc[nH]3)n2c1 [Example 105, 3-{[3-(1H-imidazol-5-yl)-2-[3-(trifluoromethyl)-1H-1,2,4-triazol-5-yl]imidazo[1,2-a]pyrimidin-6-yl]methoxy}propanenitrile] | 1000 | 3.16 |
| FC(F)(F)c1n[nH]c(-c2nc3ncc(COCCn4cccn4)cn3c2-c2c[nH]cn2)n1 [Example 146, 5-[3-(1H-imidazol-4-yl)-6-{[2-(1H-pyrazol-1-yl)ethoxy]methyl}imidazo[1,2-a]pyrimidin-2-yl]-3-(trifluoromethyl)-1H-1,2,4-triazole] | 2000 | 6.31 |
| FC(F)(F)c1n[nH]c(-c2nc3ncc(COC4CCNC4)cn3c2-c2cnc[nH]2)n1 (stereo not shown) [Example 80, 5-[3-(1H-imidazol-5-yl)-6-[(pyrrolidin-3-yloxy)methyl]imidazo[1,2-a]pyrimidin-2-yl]-3-(trifluoromethyl)-1H-1,2,4-triazole] | 12600 | 3.16 |
| FC(F)c1n[nH]c(-c2nc3ncc(Cl)cn3c2-c2c[nH]cn2)n1 [Example 4, 5-[6-chloro-3-(1H-imidazol-4-yl)imidazo[1,2-a]pyrimidin-2-yl]-3-(difluoromethyl)-1H-1,2,4-triazole] | 63.1 | 3.98 |
| CC(COCc1cnc2nc(-c3nc(C(F)(F)F)n[nH]3)c(-c3c[nH]cn3)n2c1)n1ccnc1 (stereo not shown) [Example 143, 5-(6-{[2-(1H-imidazol-1-yl)propoxy]methyl}-3-(1H-imidazol-4-yl)imidazo[1,2-a]pyrimidin-2-yl)-3-(trifluoromethyl)-1H-1,2,4-triazole] | 2510 | 3.98 |
| CC(C)(COCc1cnc2nc(-c3nc(C(F)(F)F)n[nH]3)c(-c3c[nH]cn3)n2c1)n1ccnc1 [Example 150, 5-(6-{[2-(1H-imidazol-1-yl)-2-methylpropoxy]methyl}-3-(1H-imidazol-4-yl)imidazo[1,2-a]pyrimidin-2-yl)-3-(trifluoromethyl)-1H-1,2,4-triazole] | 5010 | 5.01 |
| FC(F)c1n[nH]c(-c2nc3nc(C(F)(F)F)ccn3c2-c2cnc[nH]2)n1 [Example 88, 3-(difluoromethyl)-5-[3-(1H-imidazol-5-yl)-7-(trifluoromethyl)imidazo[1,2-a]pyrimidin-2-yl]-1H-1,2,4-triazole] | 501 | 5.01 |
